Molecules are shown by their SMILES. Like-named read-outs stand apart in the source and are kept apart here.

This assay concerns the target T1, NSD3 (Homo sapiens, UniProt Q9BZ95).
T1 construct: purchased Reaction Biology
T1 sequence (Q9BZ95 1-1437): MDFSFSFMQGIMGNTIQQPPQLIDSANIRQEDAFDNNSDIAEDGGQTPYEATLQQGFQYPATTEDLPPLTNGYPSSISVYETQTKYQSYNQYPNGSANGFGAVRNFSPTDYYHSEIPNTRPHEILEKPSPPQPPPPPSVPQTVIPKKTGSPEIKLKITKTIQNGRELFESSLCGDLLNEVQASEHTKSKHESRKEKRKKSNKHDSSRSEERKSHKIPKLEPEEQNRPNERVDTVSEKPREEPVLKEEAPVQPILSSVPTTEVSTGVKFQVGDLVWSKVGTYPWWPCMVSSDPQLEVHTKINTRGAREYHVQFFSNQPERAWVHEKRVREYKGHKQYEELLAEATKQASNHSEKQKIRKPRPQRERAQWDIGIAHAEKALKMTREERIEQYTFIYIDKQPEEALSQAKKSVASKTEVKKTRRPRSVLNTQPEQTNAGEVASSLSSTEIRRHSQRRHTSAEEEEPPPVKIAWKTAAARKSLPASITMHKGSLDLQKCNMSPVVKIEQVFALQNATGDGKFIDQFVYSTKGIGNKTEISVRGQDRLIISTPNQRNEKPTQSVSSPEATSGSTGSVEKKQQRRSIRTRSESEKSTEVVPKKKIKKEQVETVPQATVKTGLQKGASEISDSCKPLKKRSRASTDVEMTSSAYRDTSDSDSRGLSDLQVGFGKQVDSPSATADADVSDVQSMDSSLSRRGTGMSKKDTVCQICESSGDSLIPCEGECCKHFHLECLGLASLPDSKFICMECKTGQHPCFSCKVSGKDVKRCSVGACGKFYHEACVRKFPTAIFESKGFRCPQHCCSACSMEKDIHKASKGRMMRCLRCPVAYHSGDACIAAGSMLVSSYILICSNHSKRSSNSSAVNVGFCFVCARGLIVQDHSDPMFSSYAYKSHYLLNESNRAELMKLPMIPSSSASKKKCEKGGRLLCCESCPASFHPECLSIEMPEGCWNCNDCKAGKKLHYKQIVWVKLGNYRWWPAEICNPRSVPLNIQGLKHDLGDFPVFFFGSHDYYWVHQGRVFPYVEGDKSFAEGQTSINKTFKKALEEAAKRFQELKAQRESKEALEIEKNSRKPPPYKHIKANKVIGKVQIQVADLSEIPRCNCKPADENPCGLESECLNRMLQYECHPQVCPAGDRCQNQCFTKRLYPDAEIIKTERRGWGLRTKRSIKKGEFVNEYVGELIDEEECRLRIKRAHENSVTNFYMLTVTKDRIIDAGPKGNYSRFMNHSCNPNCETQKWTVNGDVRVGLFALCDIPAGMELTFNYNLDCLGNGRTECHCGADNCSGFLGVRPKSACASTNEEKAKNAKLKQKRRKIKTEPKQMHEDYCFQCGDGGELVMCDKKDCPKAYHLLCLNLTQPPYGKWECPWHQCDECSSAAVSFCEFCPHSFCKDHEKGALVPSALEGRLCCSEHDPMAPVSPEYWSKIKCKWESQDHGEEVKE
Put plainly: Radioisotope-based methyltransferase assay (selectivity). In kind it is biochemical. As to conditions: read-out: IC50.

What is called IC50 is the midpoint of a concentration-inhibition curve. Consider `Cc1c(C(=O)NC(CCC2CC2)C(=O)Nc2ccc(C#N)cc2)[nH]c2c1C(=O)CC(C)(C)C2` (centres unmarked) [RK-701], for which the IC50 reads like this: (NSD3, 1 μM SAM) more than 100 µM; (NSD3, RK-701 in duplicate) more than 100 µM.

Values taken from publication PMC9837035 (Nature Communications, 2023).
